# Experimental data published in the supplement of paper PMC8967900.
# Tests used:
# Assay in all cases: selective drug sensitivity score (sDSS, relative to normal bone marrow) (sDSS (score)); higher = more potent and effective on the cell line relative to normal bone marrow cells
# Settings in all cases: 72 h
# 697 = test system: 697
# TMD5 = test system: TMD5
# P30-OHKUBO = test system: P30-OHKUBO
# COG-LL-355h = test system: COG-LL-355h
# 380 = test system: 380
# PF-382 = test system: PF-382
# NALM-16 = test system: NALM-16
# JURKAT = test system: JURKAT
# MOLT-14 = test system: MOLT-14
# NALL-1 = test system: NALL-1
# KARPAS-45 = test system: KARPAS-45
# COG-LL-332h = test system: COG-LL-332h
# REH = test system: REH
# MHH-CALL-3 = test system: MHH-CALL-3
# COG-LL-319h = test system: COG-LL-319h
# KASUMI-9 = test system: KASUMI-9
# TANOUE = test system: TANOUE
# NALM-6 = test system: NALM-6
# CCRF-CEM = test system: CCRF-CEM
# MOLT-4 = test system: MOLT-4
# 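Further: ALL cell lines in 384-well plates, five doses spanning 10,000-fold, each plate scaled between vehicle and 100 µmol/L benzalkonium chloride controls, sDSS an adapted area-under-curve metric.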
SMILES,selective drug sensitivity score 697,selective drug sensitivity score (TMD5),selective drug sensitivity score (P30-OHKUBO),selective drug sensitivity score (COG-LL-355h),selective drug sensitivity score 380,selective drug sensitivity score (PF-382),selective drug sensitivity score (NALM-16),selective drug sensitivity score (JURKAT),selective drug sensitivity score (MOLT-14),selective drug sensitivity score (NALL-1),selective drug sensitivity score (KARPAS-45),selective drug sensitivity score (COG-LL-332h),selective drug sensitivity score (REH),selective drug sensitivity score (MHH-CALL-3),selective drug sensitivity score (COG-LL-319h),selective drug sensitivity score (KASUMI-9),selective drug sensitivity score (TANOUE),selective drug sensitivity score (NALM-6),selective drug sensitivity score (CCRF-CEM),selective drug sensitivity score (MOLT-4)
CNCc1ccc(-c2[nH]c3cc(F)cc4c3c2CCNC4=O)cc1 [Rucaparib] (top concentration 10000 nM),6.42,-0.38,0.42,0.92,11.5,-0.58,-0.58,-0.58,1.62,-0.58,0.72,1.52,1.52,13.8,6.32,2.72,-0.58,0.62,1.32,-0.58
Nc1ncn([C@@H]2O[C@H](CO)[C@@H](O)[C@H]2O)c(=O)n1 [Azacitidine] (top concentration 10000 nM),10.9,-2.26,6.54,5.14,5.44,4.44,1.84,4.04,9.04,4.14,-1.16,3.64,9.44,4.24,7.84,5.14,-0.86,3.34,9.34,4.94
COc1ccccc1S(=O)(=O)Nc1ccc2c(c1)CN(C)C(=O)N2 [PFI-1] (top concentration 30000 nM),3.7,-4.5,6.1,8.7,0.1,1.8,-1,0.8,4.4,-4.1,3.1,-0.5,-0.6,5.4,16.2,6,-3.2,1.7,1.4,-0.9
CS(=O)(=O)c1ccc(C(=O)Nc2ccc(Cl)c(-c3ccccn3)c2)c(Cl)c1 [Vismodegib] (top concentration 10000 nM),-0.84,1.26,0.36,2.26,0.76,-1.14,-1.14,-1.14,-1.14,1.06,-1.14,-1.14,-1.14,-1.14,5.56,-0.74,-1.14,-1.14,-1.14,-0.44
CCc1nc(C(N)=O)c(Nc2ccc(N3CCC(N4CCN(C)CC4)CC3)c(OC)c2)nc1NC1CCOCC1 [Gilteritinib] (top concentration 1000 nM),1.88,-2.52,7.38,2.38,-2.52,-2.52,-2.52,-2.52,-2.52,-2.52,-2.12,-2.52,-2.52,-2.52,13.6,2.88,-2.52,-2.52,-2.42,-2.52
O=C(Nc1cccc(Nc2ncc(Br)c(NCCc3cnc[nH]3)n2)c1)N1CCCC1 [BX-912] (top concentration 10000 nM),10.4,2.06,10.9,1.36,8.26,5.06,-0.14,-1.34,9.36,7.36,3.56,7.56,7.96,3.06,12.7,10.5,-7.04,6.46,9.96,6.56
Cc1ccc(C(=O)Nc2cccc(C(F)(F)F)c2)cc1Nc1nc(-c2cccnc2)nc2c1cnn2C [NVP-BHG712] (top concentration 10000 nM),3.78,7.28,5.98,4.48,1.28,3.38,-2.32,2.98,2.28,2.98,3.48,5.98,6.18,1.48,3.68,5.18,-2.32,-2.32,3.38,3.08
COc1ccc(S(=O)(=O)Nc2cccnc2Nc2ccc(O)cc2)cc1 [ABT-751] (top concentration 10000 nM),12.8,7.32,11.6,1.02,8.72,9.42,11.5,15.6,11.9,10.8,12.2,11.1,15.4,3.72,10.7,10.4,-3.48,10.7,12.2,11.1
Nc1ncnc2c1nc(Cl)n2[C@@H]1O[C@H](CO)[C@@H](O)[C@H]1O [8-chloro-adenosine] (top concentration 50000 nM),4.1,-2.1,2.8,-3.6,-6.3,-1.9,-3.1,0.3,0.3,-5.3,1.8,0.9,-0.6,-1.6,4.3,2.4,-5.3,1.1,9.1,3.3
N[C@@H]1CCCN(c2c(/C=C3\SC(=O)NC3=O)cccc2-c2ccccc2)C1 [AZD1208] (top concentration 10000 nM),1.2,3.1,-1.1,12.4,14.8,-3.8,-3.2,-4.2,1.5,2.4,-3.3,-2.9,5.5,-4.4,-4.4,-1.7,-4.1,-4.4,-4.4,-4.4
CC(C)C[C@H](NC(=O)CNC(=O)c1cc(Cl)ccc1Cl)B(O)O [Ixazomib] (top concentration 1000 nM),5.56,4.06,6.66,6.56,5.56,7.86,0.66,4.86,4.96,6.56,5.96,8.16,6.76,8.96,6.06,6.56,-6.64,6.66,10.5,5.46
CC(C)c1c(C(=O)Nc2ccccc2)c(-c2ccccc2)c(-c2ccc(F)cc2)n1CC[C@@H](O)C[C@@H](O)CC(=O)O [Atorvastatin] (top concentration 10000 nM),-2.4,-1.6,-2.2,4.2,-3,-1,-3.7,-3.7,-0.9,0.1,3.5,1.2,1,-3.7,-1,-3.7,-3.7,1.4,0.3,-2.1
O=C(CCCCCCC(=O)Nc1ccc([C@H]2O[C@@H](CSc3nc(-c4ccccc4)c(-c4ccccc4)o3)C[C@@H](c3ccc(CO)cc3)O2)cc1)NO [Tubacin] (top concentration 10000 nM),8.54,12.9,7.44,7.14,20.4,8.14,7.14,4.14,8.34,7.54,5.04,14,7.44,17.8,15.9,6.54,2.74,9.94,8.74,8.34
Cc1cc2c(C(C)C)c(O)c(O)c(C=O)c2c(O)c1-c1c(C)cc2c(C(C)C)c(O)c(O)c(C=O)c2c1O [AT-101] (top concentration 100000 nM),3.08,0.18,5.18,4.98,-0.22,1.98,0.98,4.28,4.98,4.58,5.98,4.08,5.28,-0.92,4.48,6.48,0.98,6.38,4.88,1.98
CCc1cnn2c(NCc3ccc[n+]([O-])c3)cc(N3CCCC[C@H]3CCO)nc12 [Dinaciclib] (top concentration 1000 nM),-2.64,-10.8,0.26,-4.14,-5.34,-5.94,-7.04,-5.64,-3.24,-6.24,-0.34,-1.54,-5.84,1.76,7.16,1.26,-14.3,-2.04,-2.54,-5.84
CN1CCc2c(c3ccccc3n2Cc2ccc(C(=O)NO)cc2)C1 [Tubastatin_A] (top concentration 10000 nM),4.46,-0.14,6.96,3.16,11.7,0.76,-0.14,0.36,1.06,8.76,4.46,1.46,5.86,18,8.86,8.86,-0.14,1.36,2.06,-0.04
Cn1c(Nc2ccc(C(F)(F)F)cc2)nc2cc(Oc3ccnc(-c4ncc(C(F)(F)F)[nH]4)c3)ccc21 [NVP-RAF265] (top concentration 1000 nM),9.68,6.28,4.38,10.3,2.68,1.48,6.18,2.88,6.38,2.88,7.68,3.28,2.18,7.68,5.08,4.48,0.68,-0.22,4.88,3.48
CCN1CCN(Cc2ccc(Nc3ncc(F)c(-c4cc(F)c5nc(C)n(C(C)C)c5c4)n3)nc2)CC1 [Abemaciclib] (top concentration 2500 nM),8.44,-9.66,5.94,6.44,-6.86,-1.26,-6.46,-6.16,1.44,-5.96,-4.66,-1.66,-0.06,1.24,6.64,5.44,-9.66,-4.46,-2.36,-1.96
